Among the data in ChEMBL document CHEMBL4330132, “5-Keto-3-cyano-2,4-diaminothiophenes as selective maternal embryonic leucine zipper kinase inhibitors” (Bioorg Med Chem Lett, 2019) are Activity values, retold here.

Experiment [1] has as its target Mitogen-activated protein kinase 11 (Homo sapiens) (UniProt Q15759). Put plainly: Binding affinity to wild-type human full length p38-beta (M1 to Q364 residues) expressed in bacterial expression system assessed as residual binding level at 1 uM by Kinomescan method relative to control.
In experiment [2] the test system is Tyrosine-protein kinase ABL1 (Homo sapiens), P00519 [Q252H]. Put plainly: Binding affinity to human non-phosphorylated ABL1 Q252H mutant (S229 to K512 residues) expressed in mammalian expression system assessed as residual binding level at 1 uM by Kinomescan method relative to control.
Experiment [3] addresses Serine/threonine-protein kinase PAK 6 (Homo sapiens) (UniProt Q9NQU5). Put plainly: Binding affinity to wild-type human partial length PAK6 (N298 to C681 residues) expressed in bacterial expression system assessed as residual binding level at 1 uM by Kinomescan method relative to control.
Experiment [4] concerns the target Tyrosine-protein kinase Tec (Homo sapiens) (UniProt P42680). Put plainly: Binding affinity to wild-type human partial length TEC (L341 to D620 residues) expressed in bacterial expression system assessed as residual binding level at 1 uM by Kinomescan method relative to control.
Experiment [5] addresses Homeodomain-interacting protein kinase 4 (Homo sapiens) (UniProt Q8NE63). Nature of the experiment: Binding affinity to wild-type human partial length HIPK4 (M1 to V384 residues) expressed in bacterial expression system assessed as residual binding level at 1 uM by Kinomescan method relative to control.
Experiment [6] deals with Epidermal growth factor receptor (Homo sapiens), P00533 [UNDEFINED MUTATION]. Nature of the experiment: Binding affinity to human partial length EGFR L747-T751del/Sins mutant expressed in bacterial expression system assessed as residual binding level at 1 uM by Kinomescan method relative to control.
The test system of experiment [7] is Proto-oncogene tyrosine-protein kinase receptor Ret (Homo sapiens), P07949 [V804M]. Nature of the experiment: Binding affinity to human partial length RET V804M mutant (E713 to D1014 residues) expressed in bacterial expression system assessed as residual binding level at 1 uM by Kinomescan method relative to control.
The subject of experiment [8] is Tyrosine-protein kinase ABL1 (Homo sapiens), P00519 [F317L]. Nature of the experiment: Binding affinity to human phosphorylated ABL1 F317L mutant (S229 to K512 residues) expressed in mammalian expression system assessed as residual binding level at 1 uM by Kinomescan method relative to control.
Experiment [9] has as its target Interferon-induced, double-stranded RNA-activated protein kinase (Homo sapiens) (UniProt P19525). Put plainly: Binding affinity to wild-type human partial length PRKR (F247 to C551 residues) expressed in bacterial expression system assessed as residual binding level at 1 uM by Kinomescan method relative to control.
The target in experiment [10] is Tyrosine-protein kinase BTK (Homo sapiens) (UniProt Q06187). Put plainly: Binding affinity to wild-type human full length BTK (M1 to S659 residues) expressed in mammalian expression system assessed as residual binding level at 1 uM by Kinomescan method relative to control.
Experiment [11] has as its target Serine/threonine-protein kinase B-raf (Homo sapiens) (UniProt P15056). Nature of the experiment: Binding affinity to wild-type human partial length BRAF (S429 to E741 residues) expressed in mammalian expression system assessed as residual binding level at 1 uM by Kinomescan method relative to control.
Experiment [12] concerns the target Phosphorylase b kinase gamma catalytic chain, skeletal muscle/heart isoform (Homo sapiens) (UniProt Q16816). Nature of the experiment: Binding affinity to wild-type human full length PHKG1 (M1 to Y387 residues) expressed in bacterial expression system assessed as residual binding level at 1 uM by Kinomescan method relative to control.
The target in experiment [13] is Serine/threonine-protein kinase ULK2 (Homo sapiens) (UniProt Q8IYT8). Put plainly: Binding affinity to wild-type human partial length ULK2 (M1 to S301 residues) expressed in mammalian expression system assessed as residual binding level at 1 uM by Kinomescan method relative to control.
In experiment [14] the target is Cyclin-dependent kinase 13 (Homo sapiens) (UniProt Q14004). Put plainly: Binding affinity to wild-type human partial length CDC2L5 (H675 to S1054 residues) expressed in mammalian expression system assessed as residual binding level at 1 uM by Kinomescan method relative to control.
Experiment [15] has as its system Proto-oncogene tyrosine-protein kinase receptor Ret (Homo sapiens), P07949 [M918T]. Nature of the experiment: Binding affinity to human partial length RET M918T mutant (E713 to D1014 residues) expressed in bacterial expression system assessed as residual binding level at 1 uM by Kinomescan method relative to control.
The target in experiment [16] is Serine/threonine-protein kinase TNNI3K (Homo sapiens) (UniProt Q59H18). Nature of the experiment: Binding affinity to wild-type human full length TNNI3K (M1 to S835 residues) expressed in bacterial expression system assessed as residual binding level at 1 uM by Kinomescan method relative to control.
Experiment [17] concerns the target Tyrosine-protein kinase Fer (Homo sapiens) (UniProt P16591). Put plainly: Binding affinity to wild-type human partial length FER (S542 to T822 residues) expressed in bacterial expression system assessed as residual binding level at 1 uM by Kinomescan method relative to control.
Experiment [18] has as its target Macrophage colony-stimulating factor 1 receptor (Homo sapiens) (UniProt P07333). Put plainly: Binding affinity to wild-type human partial length CSF1R (I564 to S939 residues) expressed in bacterial expression system assessed as residual binding level at 1 uM by Kinomescan method relative to control.
For experiment [19], the target named is Serine/threonine-protein kinase pim-3 (Homo sapiens) (UniProt Q86V86). Nature of the experiment: Binding affinity to wild-type human partial length PIM3 (G16 to A317 residues) expressed in bacterial expression system assessed as residual binding level at 1 uM by Kinomescan method relative to control.
The target of experiment [20] is Activin receptor type-1-like (Homo sapiens) (UniProt P37023). Nature of the experiment: Binding affinity to wild-type human ACVRL1 (L164 to Q503 residues) expressed in bacterial expression system assessed as residual binding level at 1 uM by Kinomescan method relative to control.
Experiment [21] has as its target Protein kinase C theta type (Homo sapiens) (UniProt Q04759). Put plainly: Binding affinity to wild-type human partial length PRKCQ (L350 to S706 residues) expressed in bacterial expression system assessed as residual binding level at 1 uM by Kinomescan method relative to control.
In experiment [22] the target is Tyrosine-protein kinase Fgr (Homo sapiens) (UniProt P09769). Nature of the experiment: Binding affinity to wild-type human partial length FGR (L233 to T529 residues) expressed in bacterial expression system assessed as residual binding level at 1 uM by Kinomescan method relative to control.
Experiment [23] addresses Ephrin type-A receptor 3 (Homo sapiens) (UniProt P29320). Put plainly: Binding affinity to wild-type human partial length EPHA3 (D604 to K889 residues) expressed in bacterial expression system assessed as residual binding level at 1 uM by Kinomescan method relative to control.
Experiment [24] has as its target Hormonally up-regulated neu tumor-associated kinase (Homo sapiens) (UniProt P57058). Nature of the experiment: Binding affinity to wild-type human partial length HUNK (A31 to K354 residues) expressed in bacterial expression system assessed as residual binding level at 1 uM by Kinomescan method relative to control.

Mitogen-activated protein kinase 11 (Homo sapiens), sequence (Q15759 whole entry, the tested form may be a part): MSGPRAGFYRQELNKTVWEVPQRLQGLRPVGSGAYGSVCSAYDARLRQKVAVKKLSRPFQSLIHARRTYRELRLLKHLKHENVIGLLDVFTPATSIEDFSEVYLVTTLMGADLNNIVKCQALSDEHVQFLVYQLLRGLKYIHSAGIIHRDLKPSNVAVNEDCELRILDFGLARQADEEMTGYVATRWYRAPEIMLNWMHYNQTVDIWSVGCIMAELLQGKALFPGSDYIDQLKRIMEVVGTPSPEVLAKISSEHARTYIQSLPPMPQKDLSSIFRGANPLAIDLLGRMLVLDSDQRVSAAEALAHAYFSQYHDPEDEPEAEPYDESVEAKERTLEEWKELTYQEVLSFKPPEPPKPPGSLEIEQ
Phosphorylase b kinase gamma catalytic chain, skeletal muscle/heart isoform (Homo sapiens), sequence (Q16816 whole entry, looked up, the tested form may be a part, canonical isoform): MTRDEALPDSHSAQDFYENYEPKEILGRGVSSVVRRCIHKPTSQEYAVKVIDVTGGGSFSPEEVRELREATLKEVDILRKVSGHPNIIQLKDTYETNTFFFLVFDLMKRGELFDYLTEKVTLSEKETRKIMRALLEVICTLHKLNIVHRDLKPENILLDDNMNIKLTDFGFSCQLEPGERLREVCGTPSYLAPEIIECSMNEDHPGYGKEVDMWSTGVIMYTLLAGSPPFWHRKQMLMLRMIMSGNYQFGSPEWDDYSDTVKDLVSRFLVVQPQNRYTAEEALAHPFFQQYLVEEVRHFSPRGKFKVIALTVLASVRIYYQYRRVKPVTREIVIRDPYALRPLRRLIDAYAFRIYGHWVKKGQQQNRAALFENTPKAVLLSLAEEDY
Serine/threonine-protein kinase TNNI3K (Homo sapiens), sequence (Q59H18 whole entry, the tested form may be a part): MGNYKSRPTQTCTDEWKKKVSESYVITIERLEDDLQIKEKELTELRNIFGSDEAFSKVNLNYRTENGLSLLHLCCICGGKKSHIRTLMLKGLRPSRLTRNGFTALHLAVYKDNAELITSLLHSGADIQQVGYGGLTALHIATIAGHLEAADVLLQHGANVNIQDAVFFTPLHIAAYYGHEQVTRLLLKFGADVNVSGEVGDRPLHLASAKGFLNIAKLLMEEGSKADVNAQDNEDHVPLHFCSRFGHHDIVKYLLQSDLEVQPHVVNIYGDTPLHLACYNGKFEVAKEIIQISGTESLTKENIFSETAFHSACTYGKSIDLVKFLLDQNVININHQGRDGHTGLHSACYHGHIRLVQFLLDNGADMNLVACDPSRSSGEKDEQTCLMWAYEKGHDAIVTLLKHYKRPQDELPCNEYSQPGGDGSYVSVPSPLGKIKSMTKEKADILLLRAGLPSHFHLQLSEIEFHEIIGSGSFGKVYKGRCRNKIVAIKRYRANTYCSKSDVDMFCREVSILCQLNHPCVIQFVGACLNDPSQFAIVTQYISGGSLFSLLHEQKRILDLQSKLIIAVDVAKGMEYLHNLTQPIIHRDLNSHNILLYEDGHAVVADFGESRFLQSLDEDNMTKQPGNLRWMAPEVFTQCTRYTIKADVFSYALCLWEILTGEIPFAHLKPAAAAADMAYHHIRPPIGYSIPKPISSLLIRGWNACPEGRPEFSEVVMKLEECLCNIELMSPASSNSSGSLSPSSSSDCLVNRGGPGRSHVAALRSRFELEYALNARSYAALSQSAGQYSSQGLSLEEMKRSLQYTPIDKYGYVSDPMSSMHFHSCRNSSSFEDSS
Homeodomain-interacting protein kinase 4 (Homo sapiens), sequence (Q8NE63 whole entry, the tested form may be a part): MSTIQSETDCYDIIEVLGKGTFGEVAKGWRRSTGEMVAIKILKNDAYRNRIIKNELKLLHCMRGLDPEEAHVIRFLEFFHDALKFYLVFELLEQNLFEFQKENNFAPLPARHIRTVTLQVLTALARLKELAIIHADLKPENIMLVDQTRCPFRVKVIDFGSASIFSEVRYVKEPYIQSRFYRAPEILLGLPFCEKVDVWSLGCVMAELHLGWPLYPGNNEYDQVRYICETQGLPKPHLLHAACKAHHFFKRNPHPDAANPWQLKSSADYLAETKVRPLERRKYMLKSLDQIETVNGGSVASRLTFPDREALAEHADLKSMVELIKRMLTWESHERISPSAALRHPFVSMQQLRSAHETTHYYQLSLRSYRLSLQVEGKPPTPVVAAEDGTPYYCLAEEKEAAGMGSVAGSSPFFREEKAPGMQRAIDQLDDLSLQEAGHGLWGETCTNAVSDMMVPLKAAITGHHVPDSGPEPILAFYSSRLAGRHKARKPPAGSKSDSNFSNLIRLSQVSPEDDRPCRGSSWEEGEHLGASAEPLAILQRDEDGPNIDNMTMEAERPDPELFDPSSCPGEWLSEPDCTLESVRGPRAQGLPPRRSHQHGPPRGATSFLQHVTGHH
Macrophage colony-stimulating factor 1 receptor (Homo sapiens), sequence (P07333 whole entry, the tested form may be a part): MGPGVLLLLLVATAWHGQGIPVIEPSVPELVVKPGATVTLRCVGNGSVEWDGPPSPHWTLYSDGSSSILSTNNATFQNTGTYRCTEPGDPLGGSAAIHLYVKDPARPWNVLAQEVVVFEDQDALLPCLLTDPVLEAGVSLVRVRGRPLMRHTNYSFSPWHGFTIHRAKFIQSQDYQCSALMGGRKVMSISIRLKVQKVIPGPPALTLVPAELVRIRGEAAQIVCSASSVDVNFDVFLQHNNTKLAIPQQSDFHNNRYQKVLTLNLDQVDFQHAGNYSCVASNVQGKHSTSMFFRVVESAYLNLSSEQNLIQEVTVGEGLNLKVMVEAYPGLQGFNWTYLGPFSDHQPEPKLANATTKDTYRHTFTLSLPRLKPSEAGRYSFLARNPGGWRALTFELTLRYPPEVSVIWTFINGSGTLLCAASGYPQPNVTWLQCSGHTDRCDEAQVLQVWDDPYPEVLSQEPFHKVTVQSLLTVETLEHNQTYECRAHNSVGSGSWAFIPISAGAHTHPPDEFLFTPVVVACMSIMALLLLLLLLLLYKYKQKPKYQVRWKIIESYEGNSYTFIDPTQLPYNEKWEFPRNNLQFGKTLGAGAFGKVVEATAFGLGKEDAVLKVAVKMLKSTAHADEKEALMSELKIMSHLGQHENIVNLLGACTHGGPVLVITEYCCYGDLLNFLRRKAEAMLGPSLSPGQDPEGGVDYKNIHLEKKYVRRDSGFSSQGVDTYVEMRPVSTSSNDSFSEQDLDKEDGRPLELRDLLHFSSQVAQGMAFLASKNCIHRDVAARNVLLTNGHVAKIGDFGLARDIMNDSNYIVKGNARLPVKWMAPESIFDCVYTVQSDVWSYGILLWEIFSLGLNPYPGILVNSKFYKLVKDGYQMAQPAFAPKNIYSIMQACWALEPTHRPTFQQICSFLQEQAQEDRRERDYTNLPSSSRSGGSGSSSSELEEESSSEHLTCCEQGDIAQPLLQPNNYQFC
Proto-oncogene tyrosine-protein kinase receptor Ret (Homo sapiens), P07949 [V804M], sequence (P07949 whole entry V804M, the tested form may be a part): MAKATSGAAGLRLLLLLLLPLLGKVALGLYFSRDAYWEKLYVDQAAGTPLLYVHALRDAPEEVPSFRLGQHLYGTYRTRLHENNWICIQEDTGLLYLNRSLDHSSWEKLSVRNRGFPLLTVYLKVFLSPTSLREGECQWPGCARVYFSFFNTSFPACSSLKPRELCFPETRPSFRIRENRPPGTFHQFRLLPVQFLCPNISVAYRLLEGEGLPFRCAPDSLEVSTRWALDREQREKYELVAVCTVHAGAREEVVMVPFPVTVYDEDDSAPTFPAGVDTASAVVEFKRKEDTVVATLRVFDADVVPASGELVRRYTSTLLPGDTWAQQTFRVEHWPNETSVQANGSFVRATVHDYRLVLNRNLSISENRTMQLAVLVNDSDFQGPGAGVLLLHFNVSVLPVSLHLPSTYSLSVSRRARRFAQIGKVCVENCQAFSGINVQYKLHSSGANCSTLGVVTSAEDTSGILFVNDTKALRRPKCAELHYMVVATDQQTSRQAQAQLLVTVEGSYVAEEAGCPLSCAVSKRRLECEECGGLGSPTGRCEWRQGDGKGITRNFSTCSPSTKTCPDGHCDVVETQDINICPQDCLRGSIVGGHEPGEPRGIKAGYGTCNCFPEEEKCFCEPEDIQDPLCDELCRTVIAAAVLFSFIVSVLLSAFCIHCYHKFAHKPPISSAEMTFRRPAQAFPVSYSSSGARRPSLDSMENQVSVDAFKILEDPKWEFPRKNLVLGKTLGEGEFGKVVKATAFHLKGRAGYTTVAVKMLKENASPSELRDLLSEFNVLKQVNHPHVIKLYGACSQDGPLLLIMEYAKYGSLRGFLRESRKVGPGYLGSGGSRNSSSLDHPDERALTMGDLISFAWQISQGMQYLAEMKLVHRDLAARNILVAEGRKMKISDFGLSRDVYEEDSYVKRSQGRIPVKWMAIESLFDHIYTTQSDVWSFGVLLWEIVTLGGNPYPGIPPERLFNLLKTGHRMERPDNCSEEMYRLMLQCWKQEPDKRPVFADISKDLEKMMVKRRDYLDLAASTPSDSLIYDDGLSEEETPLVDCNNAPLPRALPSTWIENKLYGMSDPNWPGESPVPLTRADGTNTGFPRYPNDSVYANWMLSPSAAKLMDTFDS
Proto-oncogene tyrosine-protein kinase receptor Ret (Homo sapiens), P07949 [M918T], sequence (P07949 whole entry M918T, the tested form may be a part): as the sequence (P07949 whole entry V804M, the tested form may be a part) above, with M804V, M918T counted along it

Regarding `CC(C)Nc1sc(C(=O)c2ccc(Cl)s2)c(N)c1C#N`, the Activity came out at 83% in [1]; 100% in experiment [2]; 79% in [3]; 94% in experiment [4]; 80% in experiment [5]; 100% in [6]. Also, the Activity turned out to be 94% in experiment [7]; 100% in experiment [8]; 68% in [9]; 74% in experiment [10]; 89% in [11]; 89% in experiment [12]. The Activity came out at 100% in experiment [13]; 84% in experiment [14]; 86% in [15]; 75% in experiment [16]; 81% in experiment [17]; 97% in experiment [18]. Besides, the Activity in [19] was determined as 86%; in experiment [20], 100%; in [21], 57%; in experiment [22], 97%; in [23], 72%; in [24] it was 71%.
